Experimental data published in US10426774B2, “Methods of treating cancer having an active Wnt/β-catenin pathway” (DANA-FARBER CANCER INSTITUTE, INC., priority 2012, dated 2019).

What was measured:
[1] = test system: zebrafish embryos; experiment: Zebrafish embryo gut formation (IFABP expression / gut reporter); assay type: in vivo; details: morpholino microinjection 50 μM; gut reporter fluorescence 4 dpf, IFABP in situ hybridization 3 dpf
Method: FIG. 5: YES1 is essential for tumorgenicity of β-catenin-active cells. (A) V5 immune complexes were isolated from HuTu80 or SW480 cells stably expressing WT or Y357F V5-epitope-tagged YAP1 or control V5-LacZ Immune complexes were analyzed by immunoblotting with a phosphotyrosine antibody. (B) HuTu80 or SW480 cells stably expressing V5-epitope-tagged WT YAP1 were treated for 6 hr with 0.5 or 2 μM of dasatinib. V5 immune complexes were analyzed by immunoblotting with a phosphotyrosine antibody. (C) Transgenic IFABP:RFP zebrafish were injected with 50 μM of YAP1- or YES1-specific morpholinos. Red fluorescence was assessed 4 dpf, or IFABP expression was assessed 3 dpf by using whole-mount in situ hybridization with an IFABP-specific probe. (D) Embryos were exposed to 2 μM of dasatinib at 2 dpf, and IFABP expression was assessed after 24 hr by using whole-mount in situ hybridization.
Zebrafish were maintained according to institutional animal care and use committee (IACUC-BIDMC) protocols. Validated morpholinos (MO) (Gene-Tools, PhiloMath, Oreg.) designed against the ATG site of YES1 (5′-CC […]-3′, SEQ ID NO: 1) (Jopling and Hertog, 2007) or YAP1 (5′-[…]-3′, SEQ ID NO: 2) (Skouloudaki et al., 2009) were injected into WT or gut reporter (Tg(fabp2:RFP)as200) zebrafish at the one-cell stage. […]

[2] = test system: HCT116; experiment: Small-molecule inhibitor proliferation assay (crystal violet), HCT116; assay type: cell-based; details: Homo sapiens, HCT-116, 168 h, β-catenin pathway active, proliferation 7 d post treatment, read-out: IC50 Dasatinib
Method: (§1) (A) The indicated cancer cell lines were treated with various concentrations of dasatinib and proliferation was measured 7 days post treatment. (B) HCT116 or (C) HuTu80 cells stably expressing a dastinib resistant YES1 (T348I) or SRC (T341I) were treated as in (A). (D) Representative picture of HCT116 cells treated as in (B).
(§2) 6000 cell/well were plated in 24-well plates and the indicated doses of dasatinib (Selleck, Houston) or vehicle was added 24 hr later. Proliferation was measured after 7 d by crystal violet staining.

[3] = test system: HuTu80; experiment: Small-molecule inhibitor proliferation assay (crystal violet), HuTu80; assay type: cell-based; details: Homo sapiens, 168 h, β-catenin pathway active, proliferation 7 d post treatment, read-out: IC50 Dasatinib
Method: as §1, §2

[4] = test system: HT55; experiment: Small-molecule inhibitor proliferation assay (crystal violet), HT55; assay type: cell-based; details: Homo sapiens, 168 h, β-catenin pathway active, proliferation 7 d post treatment, read-out: IC50 Dasatinib
Method: as §1, §2

[5] = test system: RKO; experiment: Small-molecule inhibitor proliferation assay (crystal violet), RKO; assay type: cell-based; details: Homo sapiens, 168 h, β-catenin pathway Non-active, proliferation 7 d post treatment, read-out: IC50 Dasatinib
Method: as §1, §2

[6] = test system: WT organoids; experiment: Three-dimensional primary colon organoid culture, WT; assay type: cell-based, mouse; details: WT organoids treated with dasatinib
Method: (§3) (A) Representative images of colon organoids derived from WT or APC null mice treated for 6 days with 100 nM of dasatinib. (B) Quantification of results in (A). Error bars represent SD from four replicates. Blank denotes wells where no organoids were added. (C) WT or AXIN1 mutant (Masterblind) zebrafish were treated with 2 μM of dasatinib from 6-8 dpf. Arrow indicates developing gut. (D) H&E staining of zebrafish in (C) width of epithelium is noted by bars. (E) The number of epithelial cells/section was measured in WT or AXIN1 mutant zebrafish treated with 2 μM of dasatinib or DMSO. Error bars represent the SD from 20 different sections from five treated fish. p value was calculated by using Student's t test.
(§4) Colons from Apc flox/flox; villin-CreER mice were dissected lengthwise and washed in cold PBS. 0.5-1 cm segment per dish was minced extensively on ice and embedded in a 3D collagen gel by using a double-dish culture system (Ootani et al., 2009). Tamoxifen (Sigma, 2 μM in ethanol) or vehicle (ethanol) was applied on the day of initial plating for 7 days to generate APC null or WT organoids.

[7] = test system: DLD1; experiment: Small-molecule inhibitor proliferation assay (crystal violet), DLD1; assay type: cell-based; details: Homo sapiens, DLD-1, 168 h, β-catenin pathway active, proliferation 7 d post treatment, read-out: IC50 Dasatinib
Method: as §1, §2

[8] = test system: KM12; experiment: Small-molecule inhibitor proliferation assay (crystal violet), KM12; assay type: cell-based; details: Homo sapiens, 168 h, β-catenin pathway Non-active, proliferation 7 d post treatment, read-out: IC50 Dasatinib
Method: as §1, §2

[9] = test system: SW480; experiment: Small-molecule inhibitor proliferation assay (crystal violet), SW480; assay type: cell-based; details: Homo sapiens, 168 h, β-catenin pathway active, proliferation 7 d post treatment, read-out: IC50 Dasatinib
Method: as §1, §2

[10] = test system: Colo205; experiment: Small-molecule inhibitor proliferation assay (crystal violet), Colo205; assay type: cell-based; details: Homo sapiens, COLO 205, 168 h, β-catenin pathway active, proliferation 7 d post treatment, read-out: IC50 Dasatinib
Method: as §1, §2

[11] = test system: APC null organoids; experiment: Three-dimensional primary colon organoid culture, APC null; assay type: cell-based, mouse; details: 50 nM
Method: as §3, with “(A) Representative images of colon organoids derived from WT or APC null mice treated for 6 days with 100 nM of dasatinib.” left out
as §4

IC50 [2] [µM] | IC50 [7] [µM] | IC50 [9] [µM] | IC50 [10] [µM] | Molecule | gut formation [1] | IC50 [3] [µM] | IC50 [4] [µM] | IC50 [5] [µM] | growth inhibition of WT organoids [6] [%] | IC50 [8] [µM] | decrease in growth of APC null organoids [11] [%]
– | – | – | – | 5′-AGCAACATTAACAACTCACTTTAGG-3′ (morpholino backbone, further chemistry not given here) [YAP1 morpholino] | dramatically inhibited | – | – | – | – | – | –
– | – | – | – | 5′-CC TCTTTACTCTTGACACAGCCCAT-3′ (CCTCTTTACTCTTGACACAGCCCAT; morpholino backbone, further chemistry not given here) [YES1 morpholino] | dramatically inhibited | – | – | – | – | – | –
0.068 | 0.125 | 0.05 | 0.08 | Cc1nc(Nc2ncc(C(=O)Nc3c(C)cccc3Cl)s2)cc(N2CCN(CCO)CC2)n1 [dasatinib] | – | 0.07 | 0.07 | > 0.8 | 5 | > 0.8 | 70
